Assay: Cytotoxicity by survived cell number in 293 cells expressing ∆K280 TauRD‐DsRed
Format: cell-based
Conditions: human; for IC50 at 3 days: 293 cells expressing ∆K280 TauRD‐DsRed for 3 days; for viability at 3 days, 1 µM: % of cells without treatment
Excerpt: In ∆K280 TauRD‐DsRed 293 cells, a proaggregant (ΔK280) Tau repeat domain (TauRD) containing residues 244–372 of the full‐length 4R2N Tau441 was fused in‐frame with DsRed fluorophore. Compared to the wild‐type TauRD, the poorly folded ΔK280 TauRD formed aggregates, which adversely affected the folding of fused DsRed and thus decreased DsRed fluorescence, as also evidenced by increase in thioflavin S fluorescence emission (Chang et al., 2017). Thioflavin S is a reporter dye for studies of Tau toxicity and pharmacologic prevention in cell model of tauopathy (Pickhardt et al., 2017). It binds to amyloid fibrils but not monomers and gives a distinct increase in fluorescence emission. Inhibition of Tau aggregation may improve DsRed misfolding, leading to increased fluorescence in ΔK280 TauRD‐DsRed‐expressing cells. Utilizing the established Tet‐on ΔK280 TauRD‐DsRed 293 cells (Chang et al., 2016), licochalcone A and LM compounds were tested for effects of reducing Tau misfolding and anti‐oxidation (Figure S2a). Congo red was included for comparison. […] In the following experiments, DsRed fluorescence was measured in wells containing at least 80% viable cells. […] Due to the features of their effectiveness and less cytotoxicity, licochalcone A (1 μM) and LM‐031 (1 μM) were chosen as the candidate compounds for the following experiments. […] Representative DsRed and thioflavin S fluorescent images of ∆K280 TauRD‐DsRed‐expressing cells untreated or treated with congo red (10 µM), licochalcone A (1 µM), or LM‐031 (1 µM) are shown in Figure S2d.
DsRed fluorescence of proaggregant ∆K280 TauRD-DsRed 293 cells was evaluated to reflect Tau aggregation. On day 1, cells were seeded on a 96-well plate in a density of 0.8 × 10^4 cells/well. […] On the fifth day, the cells were stained with Hoechst 33342 (0.1 µg/ml; Sigma-Aldrich) for 30 min to identify total cell number; DsRed fluorescence images (543 nm excitation and 593 nm emission) were automatically captured by using the ImageXpressMICRO high-content imaging system (Molecular Devices, Sunnyvale, CA, USA) and analyzed using MetaXpress image acquisition and analysis software (Molecular Devices). In addition, the cells were fixed with paraformaldehyde (4% in PBS) for 15 minutes, permeabilized with methanol (80%) for 6 minutes at -20°C, incubated with thioflavin S (0.02%; Sigma-Aldrich) and 4’,6-diamidino-2-phenylindole (DAPI) (0.1 μg/ml; Sigma-Aldrich) for 5 minutes, and washed in ethanol (50%). Thioflavin S images ([…]) were captured and analyzed as described. In general, 2 × 10^4 cells in each biological replicate were analyzed.
Figure S2. ΔK280 TauRD-DsRed 293 cells. (a) Experimental flow chart. Cells were plated on day 1. On day 2, the cells were treated with congo red or test compounds for 8 h; addition of doxycycline (Dox; 1 µg/ml) followed. DsRed/thioﬂavin S fluorescence, ROS, and caspase 3 activity were assessed on day 5. (b) Cytotoxicity of the test compounds against 293 cells expressing ∆K280 TauRD-DsRed for 3 days using the survived cell number (n = 3). IC50 values are listed. (c) Dose response curves of LM-031 based on DsRed fluorescence measurement. (d) Fluorescent images of ΔK280 TauRD-DsRed 293 cells untreated or treated with congo red (10 µM), licochalcone A (1 µM), or LM-031 (1 µM). Nuclei were counterstained with Hoechst 33342 (blue), and merged DsRed and Hoechst 33342 signals were shown. In addition, tau aggregation was monitored by staining with thioﬂavin S (green).

[1] = Tet-on ∆K280 TauRD-DsRed 293 cells (expression induced), ∆K280 TauRD‐DsRed‐expressing 293 cells

Structure (SMILES) | IC50 at 3 days | viability at 3 days, 1 µM [1] | viability at 3 days, 10 µM (Tet-on ∆K280 TauRD-DsRed 293 cells (expression induced), 10 μM, ∆K280 TauRD‐DsRed‐expressing 293 cells)
Nc1c(/N=N/c2ccc(-c3ccc(/N=N/c4cc(S(=O)(=O)O)c5ccccc5c4N)cc3)cc2)cc(S(=O)(=O)O)c2ccccc12 [congo red, reference compound] | 36.9 µM | – | –
C=CC(C)(C)c1cc(/C=C/C(=O)c2ccc(O)cc2)c(OC)cc1O [licochalcone A, reference compound] | 5.9 µM | 94 to 97% | –
O=C(c1ccccc1)c1cc2c(O)cccc2oc1=O [LM‐031, 3‐benzoyl‐5‐hydroxychromen‐2‐one] | 56.6 µM | 94 to 97% | 91%
COc1ccc(C(=O)/C=C/c2cc(Br)ccc2O)cc1 [LM‐004] | 5 µM | – | –
